In general, pEC50 refers to the negative decadic logarithm of the EC50, by convention in mol/L. Broadly, the pIC50 is −log10 of the IC50, conventionally taken in molar units.

Here are results for 7 compounds from patent publication US20240308999A1 (priority 2021, published 2024).

The test system of test [1] is DAT / SERT. The settings on record: 1/IC50 at DAT divided by 1/IC50 at SERT; uptake inhibition; cited from earlier work.
Test [2] has as its system DAT / SERT. The settings on record: neurotransmitter release; cited from earlier work.
Another test relates to neuritogenesis. The settings on record: Ly et al. 2018, Figure S3, cited from earlier work.
For test [3] the following is noted: after 75 or 125 mg MDMA; standard deviation of 1.3 hours; cited from earlier work.
The target of test [4] is 5-Hydroxytryptamine (Serotonin) Receptor 1B (Homo sapiens, UniProt P28222). Briefly: 5-HTR1B activity assay (Agonist/Antagonist). The class given is cell-based.
5-Hydroxytryptamine (Serotonin) Receptor 1B, sequence (P28222 whole entry): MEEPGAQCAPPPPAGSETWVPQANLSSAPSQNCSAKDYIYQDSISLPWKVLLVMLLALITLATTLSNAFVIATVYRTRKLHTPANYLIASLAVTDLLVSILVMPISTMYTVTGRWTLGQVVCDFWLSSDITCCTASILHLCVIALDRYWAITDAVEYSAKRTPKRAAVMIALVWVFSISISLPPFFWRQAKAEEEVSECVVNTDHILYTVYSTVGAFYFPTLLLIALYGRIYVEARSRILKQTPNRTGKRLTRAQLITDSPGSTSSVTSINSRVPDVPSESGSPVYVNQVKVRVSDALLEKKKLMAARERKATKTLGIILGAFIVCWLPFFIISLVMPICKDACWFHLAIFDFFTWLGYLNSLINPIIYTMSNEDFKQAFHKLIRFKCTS
Test [5] deals with 5-Hydroxytryptamine (Serotonin) Receptor 2B (Homo sapiens, UniProt P41595). Put plainly: 5-HTR2B activity assay (Agonist/Antagonist). The class given is cell-based.
5-Hydroxytryptamine (Serotonin) Receptor 2B, sequence (P41595 whole entry): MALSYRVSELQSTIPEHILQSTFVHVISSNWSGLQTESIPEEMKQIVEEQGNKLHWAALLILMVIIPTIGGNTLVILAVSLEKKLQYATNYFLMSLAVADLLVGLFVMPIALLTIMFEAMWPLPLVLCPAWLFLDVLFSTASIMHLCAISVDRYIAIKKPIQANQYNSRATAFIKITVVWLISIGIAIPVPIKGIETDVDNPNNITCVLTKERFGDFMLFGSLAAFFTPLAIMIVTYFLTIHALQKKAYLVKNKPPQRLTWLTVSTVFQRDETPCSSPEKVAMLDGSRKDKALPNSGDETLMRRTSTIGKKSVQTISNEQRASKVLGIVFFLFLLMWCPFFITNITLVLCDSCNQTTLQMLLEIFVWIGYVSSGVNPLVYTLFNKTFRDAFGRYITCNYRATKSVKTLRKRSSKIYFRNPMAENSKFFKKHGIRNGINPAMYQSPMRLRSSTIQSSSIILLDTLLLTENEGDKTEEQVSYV
The target in a further test is T1, human DAT (Homo sapiens, UniProt Q01959).
T1 construct: expressed in transfected cells; host or cells: Chinese hamster ovary (CHO) cells
T1 sequence (Q01959 whole entry): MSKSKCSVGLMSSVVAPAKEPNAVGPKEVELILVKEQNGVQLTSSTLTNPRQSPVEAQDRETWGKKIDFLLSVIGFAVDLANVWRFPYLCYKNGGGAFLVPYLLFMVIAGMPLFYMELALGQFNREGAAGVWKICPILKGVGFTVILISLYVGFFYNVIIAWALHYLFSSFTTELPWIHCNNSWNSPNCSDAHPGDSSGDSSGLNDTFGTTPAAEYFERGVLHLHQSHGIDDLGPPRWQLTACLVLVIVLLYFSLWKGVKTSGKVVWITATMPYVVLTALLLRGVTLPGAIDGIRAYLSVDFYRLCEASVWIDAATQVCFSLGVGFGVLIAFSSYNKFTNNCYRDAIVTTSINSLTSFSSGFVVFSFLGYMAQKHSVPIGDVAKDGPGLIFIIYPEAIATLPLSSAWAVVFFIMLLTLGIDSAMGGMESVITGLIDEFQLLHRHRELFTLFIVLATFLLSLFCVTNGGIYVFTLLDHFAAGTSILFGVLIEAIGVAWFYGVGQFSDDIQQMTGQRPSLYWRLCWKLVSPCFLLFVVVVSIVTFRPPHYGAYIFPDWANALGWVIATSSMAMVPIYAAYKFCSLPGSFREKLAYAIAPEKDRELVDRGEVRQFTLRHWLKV
Briefly: hDAT release assay ([3H]dopamine release). The class given is cell-based.

In a further test the target is T2, human SERT (Homo sapiens, UniProt P31645).
T2 construct: expressed in transfected cells; host or cells: Chinese hamster ovary (CHO) cells
T2 sequence (P31645 whole entry): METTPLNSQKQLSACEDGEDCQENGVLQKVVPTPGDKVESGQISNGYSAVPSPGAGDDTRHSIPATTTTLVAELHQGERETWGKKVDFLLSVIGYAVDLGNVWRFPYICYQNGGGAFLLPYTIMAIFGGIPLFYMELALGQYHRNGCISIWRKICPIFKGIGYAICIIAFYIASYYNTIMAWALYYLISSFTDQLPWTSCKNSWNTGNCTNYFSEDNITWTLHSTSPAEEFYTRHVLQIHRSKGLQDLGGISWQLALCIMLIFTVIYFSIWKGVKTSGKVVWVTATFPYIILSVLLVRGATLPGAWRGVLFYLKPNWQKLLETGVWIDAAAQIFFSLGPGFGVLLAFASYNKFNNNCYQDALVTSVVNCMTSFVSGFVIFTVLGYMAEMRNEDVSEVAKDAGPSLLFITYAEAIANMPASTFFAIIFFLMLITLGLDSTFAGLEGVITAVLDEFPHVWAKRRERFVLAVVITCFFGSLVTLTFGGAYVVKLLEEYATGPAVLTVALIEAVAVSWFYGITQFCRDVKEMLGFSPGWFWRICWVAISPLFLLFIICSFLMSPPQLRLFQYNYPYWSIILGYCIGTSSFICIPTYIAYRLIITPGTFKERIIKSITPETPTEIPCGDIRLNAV
Put plainly: hSERT release assay ([3H]serotonin release). The class given is cell-based.

In the next test the target is Dopamine transporter (Homo sapiens, UniProt Q01959). Briefly: DAT monoamine transporter uptake assay (Blocker).
Dopamine transporter, sequence (Q01959 whole entry): as the sequence (Q01959 whole entry) above
In test [6] the target is Norepinephrine transporter (Homo sapiens, UniProt P23975). Put plainly: NET monoamine transporter uptake assay (Blocker).
Norepinephrine transporter, sequence (P23975 whole entry): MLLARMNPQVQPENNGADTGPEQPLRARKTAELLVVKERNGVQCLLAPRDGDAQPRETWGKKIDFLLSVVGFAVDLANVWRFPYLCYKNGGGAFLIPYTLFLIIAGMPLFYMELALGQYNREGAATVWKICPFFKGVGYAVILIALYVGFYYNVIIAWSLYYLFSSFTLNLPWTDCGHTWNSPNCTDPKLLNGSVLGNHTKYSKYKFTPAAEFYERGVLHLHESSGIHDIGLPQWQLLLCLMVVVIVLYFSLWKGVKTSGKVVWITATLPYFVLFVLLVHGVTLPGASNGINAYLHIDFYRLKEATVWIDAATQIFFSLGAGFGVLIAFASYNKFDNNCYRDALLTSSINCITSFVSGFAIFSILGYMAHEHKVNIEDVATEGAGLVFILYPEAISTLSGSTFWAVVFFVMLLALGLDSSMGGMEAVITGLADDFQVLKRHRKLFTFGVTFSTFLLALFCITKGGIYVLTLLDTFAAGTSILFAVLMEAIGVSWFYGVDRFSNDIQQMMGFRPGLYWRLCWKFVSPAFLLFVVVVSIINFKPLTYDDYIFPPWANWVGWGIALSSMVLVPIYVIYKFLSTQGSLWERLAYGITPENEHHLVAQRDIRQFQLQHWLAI
A further test deals with DAT / NET. The note with it: neurotransmitter release; cited from earlier work.
Test [7] addresses Nicotinic acetylcholine Receptor α4 β2 (Homo sapiens, UniProt P17787+P43681). The class given is cell-based. The note with it: nACHR(a4/b2), Blocker mode; positive control; read-out: RC50 (Result Type IC50).
Test [8] concerns the target Gamma-aminobutyric acid Receptor A. The format is cell-based. The settings on record: GABAA, Blocker mode; positive control; read-out: RC50 (Result Type IC50).

pEC50, pIC50: −log10 of the molar value.

Nicotinic acetylcholine Receptor α4 β2, sequence (P43681 29-627 limits assumed): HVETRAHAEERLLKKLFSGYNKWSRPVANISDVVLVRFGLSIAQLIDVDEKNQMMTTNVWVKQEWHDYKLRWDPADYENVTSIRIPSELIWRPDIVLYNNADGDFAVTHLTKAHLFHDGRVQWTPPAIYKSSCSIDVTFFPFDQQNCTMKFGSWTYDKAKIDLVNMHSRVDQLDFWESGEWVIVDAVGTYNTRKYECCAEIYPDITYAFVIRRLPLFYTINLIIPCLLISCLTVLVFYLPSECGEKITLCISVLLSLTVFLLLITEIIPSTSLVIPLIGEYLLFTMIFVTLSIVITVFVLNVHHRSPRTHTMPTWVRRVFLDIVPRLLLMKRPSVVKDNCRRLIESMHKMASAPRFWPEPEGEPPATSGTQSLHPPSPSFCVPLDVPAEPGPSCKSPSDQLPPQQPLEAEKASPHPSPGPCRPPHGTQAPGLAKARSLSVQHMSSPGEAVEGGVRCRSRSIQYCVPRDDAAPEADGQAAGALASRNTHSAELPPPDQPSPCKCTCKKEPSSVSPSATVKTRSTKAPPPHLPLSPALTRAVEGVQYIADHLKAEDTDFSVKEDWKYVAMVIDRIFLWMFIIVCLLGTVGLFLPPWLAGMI
Nicotinic acetylcholine Receptor α4 β2, sequence (P17787 26-502): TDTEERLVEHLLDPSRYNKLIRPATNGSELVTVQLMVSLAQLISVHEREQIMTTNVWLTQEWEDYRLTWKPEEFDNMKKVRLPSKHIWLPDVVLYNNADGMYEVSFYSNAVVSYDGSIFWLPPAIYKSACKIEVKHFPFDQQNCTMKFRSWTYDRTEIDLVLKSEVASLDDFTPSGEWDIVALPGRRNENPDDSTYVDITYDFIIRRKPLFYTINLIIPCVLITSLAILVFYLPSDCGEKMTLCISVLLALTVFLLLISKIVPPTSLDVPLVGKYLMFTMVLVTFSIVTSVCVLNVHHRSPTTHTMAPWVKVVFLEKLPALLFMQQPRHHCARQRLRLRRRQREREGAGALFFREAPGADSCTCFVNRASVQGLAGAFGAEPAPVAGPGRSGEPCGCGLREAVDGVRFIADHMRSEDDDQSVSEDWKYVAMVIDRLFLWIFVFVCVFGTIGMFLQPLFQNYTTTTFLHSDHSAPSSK

In the case of `CCNC(C)Cc1ccc2c(c1)OCO2` (stereo not drawn) [MDEA, [1-(2H-1,3-benzodioxol-5-yl)propan-2-yl](ethyl)amine], the “DAT/SERT IC50 ratio” value in the test with DAT / SERT [1] was 3.2. For the same compound, the “DAT/SERT EC50 ratio” value in the test on DAT / SERT [2] was 0.76.
Consider `CNC(C)Cc1ccc2c(c1)OCO2` (stereo not drawn) [MDMA], for which, in the test on neuritogenesis, the “Emax for promoting neuritogenesis relative to ketamine” value is given as “approximately twice that of ketamine”. For the same compound, the pEC50 in the test on neuritogenesis (read-out: EC50 for promoting neuritogenesis) is 8.13. Also, the “Duration of acute therapeutic effects” value in test [3] was 4.2 h. The “DAT/SERT IC50 ratio” value in the test with DAT / SERT [1] is given as 0.08.
Take `CNC(C)C(=O)c1ccc2ccccn12` (stereo not drawn) [Structure XLX]: the pEC50 was 5.95 in [4], 6.64 at human DAT and 6.96 on human SERT. The pIC50 is 5.67 in [5], 5.62 against Dopamine transporter and 5.24 in [6]. Also, the “DAT/SERT ratio*” value at human DAT (calculated as (DAT EC50)^−1/(SERT EC50)^−1, larger numbers indicate higher DAT selectivity) is recorded as 2.1. Besides, at human DAT (hMAT release assays), the “Relative potency of release, DAT versus 5-HT” value is given as “more potent at releasing DAT than 5-HT”.
Regarding `C[C@H](N)Cc1ccccc1` [d-amphetamine, D-amphetamine], the “DAT/NET EC50 ratio” value in the test on DAT / NET is recorded as 0.9.
On to `CN[C@@H](C)Cc1ccccc1` [d-methamphetamine], for which the “DAT/NET EC50 ratio” value with DAT / NET is listed as 0.5.
Regarding Dihydro-AY-erythroidine, the pIC50 in test [7] is 6.17.
Picrotoxin: in test [8], the pIC50 was 5.56.
